Laboratory results published in patent publication US20180010188A1, “METHOD FOR DETECTING NONSENSE-MEDIATED RNA DECAY” (The Regents of the University of California, priority 2016, published 2018).
“Also recorded” adds a separate entry of the source.

What was measured:
[1] = system: NMD and non-NMD isoforms of Srsf11, Ptbp2, Tra2b, Hnrnpl and Psd-95 (cellular NMD activity); experiment: RT-qPCR of endogenous NMD and non-NMD isoforms to monitor cellular NMD activity; type: cell-based, mouse
From the text: In our method, we measure the individual abundance of NMD-sensitive isoforms and that of their non-NMD counterparts via quantitative real-time PCR (qPCR). The NMD isoforms are first examined for differential expression between a treatment and a control condition. An increase in a NMD isoform may be due to NMD inhibition, transcriptional activation or a change in alternative splicing favoring the NMD isoform. These three scenarios can be distinguished by examining the expression of the non-NMD counterparts. Genuine NMD regulation, transcriptional activation and alternative splicing regulation would lead to no change, upregulation and down-regulation of the NMD-insensitive isoforms, respectively (FIG. 6A).
One technical difficulty of our method is designing RT-qPCR primers specific to the cassette exon-skipping isoform, whose entire sequence is contained in the inclusion isoform. To specifically detect an inclusion isoform, we designed a primer entirely annealing to the cassette exon (exon B in FIG. 1A). For the exclusion isoform, junction primers annealing to the exon-skipping junction appear to be the only choices. This can be either a reverse primer (FIG. 1A) with its 5′ portion matching the downstream constitutive exon (exon C) and its 3′ portion matching the upstream constitutive exon (exon A) or a forward primer (not shown) with its 5′ and 3′ portions matching the upstream and downstream exons, respectively. The challenge is herein illustrated with reverse primers but also applies to forward primers. Many exon-skipping junction primers are able to amplify the inclusion isoforms (FIGS. 7A-D). The longer the 3′ portion of the junction primer annealing to the upstream constitutive exon, the easier the primer amplifies the inclusion transcripts (FIG. 7B). Some exon-skipping junction primers with 3′ portions as short as six nucleotides, as we've observed, can still anneal to and detect the inclusion isoform at 55-60° C., albeit at a lower efficiency than its detection of the exclusion isoform. On the other hand, a longer 5′ portion and a shorter 3′ portion increase the possibility of the primer annealing to the exon B-exon C junction because of the sequence similarity around 5′ splice sites (FIGS. 7C-D). We therefore had to identify NMD-associated cassette exons containing a 3′ end unlike that of its upstream exon. We then screened multiple exon-skipping junction primers for one that amplified only the exclusion isoform and not the inclusion isoform. All primer pairs were tested and confirmed for their specificity, RT-qPCR efficiency and linear dynamic ranges (FIG. 10). Finally, two stably expressed housekeeping genes, Gapdh and Sdha, were used as internal controls for normalization by geometric averaging (Vandesompele et al., 2002. Genome Biol 3: RESEARCH0034).
Because our method can be used on its own can to infer NMD regulation with a low false positive rate, one of its applications is unbiased screening for changes in cellular NMD activity. We screened a small panel of widely used pharmacological inhibitors for their effects on NMD. The expression of both the NMD and non-NMD isoforms of Ptbp2, Srsf11, Tra2b, Hnrnpl and Psd-95 were simultaneously measured before and after drug treatment. When the levels of all of the NMD isoforms were altered by a chemical in the same direction, the expression of the NMD and non-NMD isoforms under the treatment and control conditions was then subjected to ANOVA analysis to determine differential regulation of the two isoforms. We were interested in drugs that affected the NMD isoforms across the board and more strongly than the non-NMD counterparts. With this criterion, we identified thapsigargin as having potent activity in blocking cellular NMD.
Neuro-2a (N2a) cells were maintained in N2a complete media consisting of L-glutamine-free Dulbecco's modified Eagle's medium (DMEM), 10% FBS and 1× GlutaMAX at 37° C. […]

[2] = system: immediate early genes c-fos, c-Jun and Pip92; experiment: RT-qPCR of immediate early genes; type: cell-based, mouse
From the text: We then examined whether an increase in intracellular Ca^2+ is sufficient to inhibit NMD. We applied a wide dose range of ouabain, a cardiac glycoside used by Nickless et al., and measured the abundance of both NMD and non-NMD isoforms at various time-points. […] To further test whether increased intracellular Ca^2+ was sufficient to inhibit NMD, we treated the cells with ionomycin, a Ca^2+ ionophore, as another method of raising the cytoplasmic Ca^2+ concentration.
Neuro-2a (N2a) cells were maintained in N2a complete media consisting of L-glutamine-free Dulbecco's modified Eagle's medium (DMEM), 10% FBS and 1× GlutaMAX at 37° C. Thapsigargin (VWR, cat. no. 89161-410), ionomycin (Fisher Scientific, cat. no. AG-CN2-0416-M001) and ouabain octahydrate (Fisher Scientific, cat. no. 80055-364) were dissolved in DMSO and stored at −80° C. For the application of these chemicals, 750,000 cells were plated on 35 mm BioLite TC plates and incubated with 2 ml of N2a complete media overnight before treatment with the drugs at the indicated concentrations. […]
Trizol (Life Technologies, cat. no. 15596-018) was directly added to the cells or mouse brain tissues to extract total RNA following the Trizol Reagent standard protocol. […] RNA concentrations were measured using a Nanodrop 2000c (Thermo Fisher). […] Relative expression (fold changes) was calculated using the ΔΔCt method. […]

| SMILES | levels of the NMD isoforms ([1]; 1 to 100 μM) | expression of immediately early genes c-Jun and Pip92 ([2]; ionomycin treatment) | NMD isoforms at high concentration ([1]; 200 or 400 μM) | changes in cellular NMD activity ([1]; wide dose range, various time-points, N2a cells) | immediate early genes c-fos and Pip92 ([2]; 200 or 400 μM, N2a cells) |
| --- | --- | --- | --- | --- | --- |
| C[C@H](CCC(=O)O)C[C@H](C)C[C@H](C)C(=O)/C=C(\O)[C@H](C)C[C@H](C)C/C=C/[C@@H](C)[C@@H](O)[C@@H](C)[C@@H](O)C[C@@H]1CC[C@@](C)([C@H]2CC[C@@](C)([C@@H](C)O)O2)O1 [ionomycin] | did not alter | increased expression |  |  |  |
| C[C@@H]1O[C@@H](O[C@H]2C[C@@H](O)[C@]3(CO)[C@H]4[C@H](O)C[C@]5(C)[C@@H](C6=CC(=O)OC6)CC[C@]5(O)[C@@H]4CC[C@]3(O)C2)[C@H](O)[C@H](O)[C@H]1O [ouabain] |  |  | not substantially enhanced | only minimal changes; also recorded: did not unequivocally affect NMD activity | clearly stimulated; also recorded: clearly induced |
